Experiment [1] concerns the target T1, SGLT2 (Homo sapiens, UniProt P31639).
T1 construct: expressed in transfected cells
T1 sequence (P31639 1-672): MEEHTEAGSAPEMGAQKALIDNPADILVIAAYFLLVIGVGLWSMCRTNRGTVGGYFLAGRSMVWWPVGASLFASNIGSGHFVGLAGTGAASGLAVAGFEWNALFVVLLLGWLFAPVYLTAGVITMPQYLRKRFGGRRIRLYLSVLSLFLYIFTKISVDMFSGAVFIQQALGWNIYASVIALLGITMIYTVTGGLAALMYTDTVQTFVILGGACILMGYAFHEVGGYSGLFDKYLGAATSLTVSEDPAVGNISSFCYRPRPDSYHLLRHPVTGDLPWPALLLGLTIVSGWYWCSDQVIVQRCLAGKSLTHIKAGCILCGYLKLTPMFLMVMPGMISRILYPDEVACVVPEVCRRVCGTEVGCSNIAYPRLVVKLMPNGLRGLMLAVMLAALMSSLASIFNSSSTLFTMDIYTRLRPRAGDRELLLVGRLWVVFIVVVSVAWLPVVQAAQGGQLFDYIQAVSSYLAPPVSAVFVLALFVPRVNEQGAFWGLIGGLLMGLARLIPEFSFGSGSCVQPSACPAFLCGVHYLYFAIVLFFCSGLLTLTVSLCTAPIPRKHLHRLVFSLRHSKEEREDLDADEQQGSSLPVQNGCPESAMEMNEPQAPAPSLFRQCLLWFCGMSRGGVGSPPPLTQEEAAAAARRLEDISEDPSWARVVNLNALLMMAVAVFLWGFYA
In words: 14C-AMG uptake in BHK cells transfected with SGLT2. The experiment is classed as cell-based. To be noted: 2 mM AMG, 37° C., 90 min. An excerpt:
(§1) The compounds can be tested for their SGLT inhibition properties by means of BHK cells expressing SGLT1 and SGLT2. The production of the cells and the testing can be carried out as described below.
Construction and Expression of SGLT2 in BHK Cells
To construct the SGLT2 expression vector (KL224), the SLC5A2 gene (homologous to NM_003041) was amplified from a cDNA library using standard PCR technology and cloned over NheI/XhoI sites into PCI-neo expression vector (Promega) containing neomycin as a selection marker. In this vector, transcription uses the enhancer/promoter of human cytomegalovirus and the SV40 polyadenylation signal.
(§2) The final vector KL224 together with an additional vector containing a dihydrofolate reductase gene as a selection marker was introduced into cells. Transfection into BHK21 cells (ATCC CCL-10), cultivated in DMEM medium (GIBCO/BRL), supplemented with 10% foetal calf serum (FCS) and 20 mM glutamine, was carried out using calcium phosphate transfections according to Graham, F. L. and van der Ebb, A. J. (1973), Virology 52: 456 with 5-20 μg of uncut plasmids for 10^7 cells. Stable transfectants were selected in medium containing 1 mg/ml of G418 (GIBCO/BRL) and 20-5000 nM methotrexate as final concentration, where only cells which expressed the neomycin gene and overexpressed the dhfr gene were able to grow. After growth for 2-3 weeks, the cells were cloned (0.5 cells/well) and the clones were investigated for SGLT expression in radioactivity uptake tests.
(§3) Method of SGLT1/2 Activity Measurement
(§4) The uptake of ^14C-α-methyl-D-glucopyranoside (AMG) in, for example, Xenopus oocytes injected with the corresponding cRNA has been described in principle (for example Wen-Sen Lee et al. (1994), J. Biol. Chem. 269, 12032-12039; Guofeng You et al. (1995), J. Biol. Chem. 270, 29365-29371).
(§5) A 96-well cell-based assay was developed and adapted to HTS requirements:
(§6) BHK cells (transfected with SGLT1 or SGLT2) were seeded into 96-well microtitre plates (Cultureplates, Perkin Elmer). After at least 24 h, medium was removed, and the cell layer was washed with assay buffer (140 mM NaCl, 2 mM KCl, 1 mM CaCl2, 1 mM MgCl2, 10 mM HEPES, 5 mM Tris, adjusted to pH 7.4 using 1 M KOH). After addition of 40 μl of assay buffer, 50 μl of AMG (50 μM for SGLT1 and 2 mM for SGLT2) in the presence or absence of compounds, the cells were incubated in a total volume of 100 μl at 37° C. for 90 min. Supernatant was removed by suction and discarded. Cells were washed and lysed by addition of 50 μl of water. After 10 min at room temperature, 200 μl of Micrsoscint 40 (Perkin Elmer) were added. The radioactivity was counted in a Topcount microplate scintillation counter (Perkin Elmer). The non-specific uptake was determined in sodium-free assay buffer (266 mM sucrose, 2 mM KCl, 1 mM CaCl2, 1 mM MgCl2, 10 mM HEPES, 5 mM Tris, adjusted to pH 7.4 using 1 M KOH).

The target in experiment [2] is T2, SGLT1 (Homo sapiens, UniProt P13866).
T2 construct: expressed in transfected cells
T2 sequence (P13866 1-664): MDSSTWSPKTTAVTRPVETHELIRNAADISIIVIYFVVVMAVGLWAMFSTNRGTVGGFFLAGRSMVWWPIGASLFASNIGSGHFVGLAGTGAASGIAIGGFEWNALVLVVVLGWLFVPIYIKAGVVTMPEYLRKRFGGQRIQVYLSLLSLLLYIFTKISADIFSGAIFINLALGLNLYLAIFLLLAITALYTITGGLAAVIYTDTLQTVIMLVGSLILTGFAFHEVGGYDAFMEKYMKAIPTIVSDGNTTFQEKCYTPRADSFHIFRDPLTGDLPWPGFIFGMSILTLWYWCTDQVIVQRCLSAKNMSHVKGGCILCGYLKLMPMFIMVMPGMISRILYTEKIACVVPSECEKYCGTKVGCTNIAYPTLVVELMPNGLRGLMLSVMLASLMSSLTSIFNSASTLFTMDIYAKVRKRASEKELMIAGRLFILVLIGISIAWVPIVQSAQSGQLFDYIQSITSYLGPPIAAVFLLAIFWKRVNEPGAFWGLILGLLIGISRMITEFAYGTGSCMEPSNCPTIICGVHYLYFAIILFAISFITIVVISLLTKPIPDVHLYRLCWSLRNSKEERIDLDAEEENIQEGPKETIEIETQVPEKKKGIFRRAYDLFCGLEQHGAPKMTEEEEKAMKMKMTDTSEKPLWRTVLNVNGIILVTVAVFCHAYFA
In words: 14C-AMG uptake in BHK cells transfected with SGLT1. It is filed as cell-based. To be noted: 50 μM AMG, 37° C., 90 min.
Excerpt: as §1
Construction and Expression of SGLT1 in BHK Cells
To construct the SGLT1 expression vector (KL225), the SLC5A1 gene (homologous to NM_000343) was amplified from a cDNA library using standard PCR technology and cloned over NheI/XhoI sites into the pcDNA3.1 expression vector (Invitrogen) containing neomycin as a selection marker. In this vector, transcription uses the enhancer/promoter of human cytomegalovirus.
as §2, with “KL225” for “KL224”
as §3, §4, §5, §6

pIC50: −log10 of the molar value. Bounds are passed on as bounds.

The term pIC50 denotes the IC50 on a negative log10 scale, so that one unit is a factor of ten. As for “5-(β-D-glucopyranos-1-yl)-2-(4-methoxyphenyl)benzofuran [Compound A8]”, the pIC50 in experiment [1] and in experiment [2] was below 5.00 throughout.
For “6-(β-D-glucopyranos-1-yl)-1R-(4-methoxyphenyl)indane [Compound A3]”, the pIC50 in experiment [1] and in experiment [2] was below 5.00 in each case.
On to “5-(β-D-Glucopyranos-1-yl)-3-(4-methoxyphenyl)benzofuran [Compound A7]”, for which the results for the pIC50 in experiment [1] and in experiment [2] were 5.00 to 6.00 and below 5.00, respectively.
For the molecule `COc1ccc([C@@H]2CCc3ccc([C@@H]4O[C@H](CO)[C@@H](O)[C@H](O)[C@H]4O)cc32)cc1` [Compound A2, 6-(β-D-glucopyranos-1-yl)-1S-(4-methoxyphenyl)indane], the results for the negative logarithm of the IC50 (pIC50) in experiment [1] and in experiment [2] were 6.00 to 8.00 and below 5.00, respectively.
For `COc1ccc([C@@H]2COc3ccc([C@@H]4O[C@H](CO)[C@@H](O)[C@H](O)[C@H]4O)cc32)cc1` [Compound A13], the values for the negative logarithm of the IC50 (pIC50) in experiment [1] and in experiment [2] were 6.00 to 8.00 and below 5.00, respectively.
On the same counts, the results for `COc1ccc(C2CCCc3ccc([C@@H]4O[C@H](CO)[C@@H](O)[C@H](O)[C@H]4O)cc32)cc1` (stereo partly drawn) [Compound A5, 7-(β-D-Glucopyranos-1-yl)-1-(4-methoxyphenyl)-1,2,3,4-tetrahydro-naphthalene] are 6.00 to 8.00 and below 5.00.
On the same counts, the results for `CCOc1ccc(-n2ccc3ccc([C@@H]4O[C@H](CO)[C@@H](O)[C@H](O)[C@H]4O)cc32)cc1` [Compound A12, 6-(β-D-Glucopyranos-1-yl)-1-(4-ethoxyphenyl)indole] are below 5.00 and below 5.00.
Turning to `CCOc1ccc(C2CCc3ccc([C@@H]4O[C@H](CO)[C@@H](O)[C@H](O)[C@H]4O)cc32)cc1` (stereo partly drawn) [Compound A4, 6-(β-D-Glucopyranos-1-yl)-1-(4-ethoxyphenyl)indane], the pIC50 in experiment [1] is 6.00 to 8.00; in experiment [2], below 5.00.
As for `COc1ccc(C2=CCCc3ccc([C@]4(OC)O[C@H](CO)[C@@H](O)[C@H](O)[C@H]4O)cc32)cc1` [Compound A6, 7-(1-Methoxy-D-glucopyranos-1-yl)-1-(4-methoxyphenyl)-3,4-dihydronaphthalene], the pIC50 in experiment [1] and in experiment [2] was below 5.00 throughout.
For the molecule “6-(β-D-glucopyranos-1-yl)-3R-(4-methoxyphenyl)indane [Compound A14]”, the pIC50 in experiment [1] and in experiment [2] was below 5.00 each time.
Take `COc1ccc(C2COc3ccc([C@@H]4O[C@H](CO)[C@@H](O)[C@H](O)[C@H]4O)cc32)cc1` (stereo partly drawn) [Compound A9, 5-(β-D-Glucopyranos-1-yl)-3-(4-methoxyphenyl)-2,3-dihydrobenzofuran]: the pIC50 in experiment [1] is 6.00 to 8.00; in experiment [2], below 5.00.
Take `COc1ccc(C2CCc3ccc([C@@H]4O[C@H](CO)[C@@H](O)[C@H](O)[C@H]4O)cc32)cc1` (stereo partly drawn) [Compound A1, 6-(β-D-glucopyranos-1-yl)-1-(4-methoxyphenyl)indane]: the values for the pIC50 in experiment [1] and in experiment [2] were 6.00 to 8.00 and below 5.00, respectively.

For the origin of these results see US8399509B2, “Glucopyranoside derivatives” (Merck Patent Gesellschaft mit beschrankter Haftung, priority 2008, dated 2013).
